Source: the supplement of paper PMC11997997

Assays:
[1] = test system: murine bone marrow-derived macrophages; test: area under cytotoxicity dose-response curve (AUC (% cytotoxicity x dose, relative)); higher = more cytotoxic; conditions: duration: 6 days; dose range: 0.13-80 uM, 8 points
In short: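 An 8-point, 2.5-fold dilution series (final 80–0.13 μM) was applied for 6 days at 37 °C in 5% CO2 to primary murine bone marrow-derived macrophages plated in opaque 384-well plates. Promega's CellTiter-Glo luminescence assay measured viability, and percent cytotoxicity was normalised against vehicle and positive control wells. The area under the dose–response curve, worked out in GraphPad Prism version 10, is the reported cytotoxicity measure.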

[2] = test system: Mycobacterium tuberculosis CDC1551 (intracellular, in murine BMDM); test: area under intracellular growth-inhibition dose-response curve (AUC (% inhibition x dose, relative)); higher = more potent; conditions: duration: 6 days; dose range: 0.13-80 uM, 8 points
In short: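 Each value is an area under the growth-inhibition dose–response curve, calculated with GraphPad Prism. Infected primary murine bone marrow-derived macrophages, carrying luciferase-expressing M. tuberculosis CDC1551 at multiplicity of infection 1, were treated for 6 days with an 8-dose, 2.5-fold series (final 80–0.13 μM) in 384-well opaque plates. Readout was by Bright-Glo luciferin assay, normalised to a reference drug control and the lowest-concentration wells.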

Row | Compound | area under cytotoxicity dose-response curve [1] | area under intracellular growth-inhibition dose-response curve [2]
1 | COc1ccc2c(c1)c(CC(=O)OCC(=O)O)c(C)n2C(=O)c1ccc(Cl)cc1 | 47.6 | 117
2 | O=C(CCN1C(=O)/C(=C/c2cccs2)SC1=S)Nc1ccc(C(=O)O)c(O)c1 | 68.2 | 189
3 | O=C(NC1CCCCC1)c1ccc2c(c1)OCO2 | 88.5 | 125
4 | CCOc1ccc(C(=O)CCC(=O)NNC(=O)c2ccncc2)cc1 | 49 | 119
5 | COc1ccc(/C=N/NC(=O)c2ccncc2)cc1COc1ccc(NC(C)=O)cc1 | 14.4 | 272
6 | S=C(Nc1ccc(Oc2ccccc2)cc1)NC1CCCCCC1 | 210 | 155
7 | N#C/C(=N\Nc1ccc(Cl)cc1)C(N)=S | 16.4 | 102
8 | Cc1ccc(-c2nnc(C)c(N3CCCC3)n2)cc1 | 92.9 | 101
9 | CCc1ccc(C(C)NC(=O)c2cccs2)cc1 (stereo unspecified) | 120 | 123
10 | CCCCCC(=O)N1CCCC1 | 20.6 | 139
11 | CCN1C(=O)C(O)(C2COC(C)(C)CC2=O)c2ccccc21 (stereo unspecified) | 41 | 31.5
12 | Cc1ccccc1-n1c(C)cc(/C=N/NC(=O)c2ccncc2)c1C | < 0 | 214
13 | O=C(N/N=C/C=C\c1ccccc1[N+](=O)[O-])c1ccncc1 | 5.73 | 260
14 | O=C(c1ccc([N+](=O)[O-])o1)N1CCN(c2nc3c(Cl)cccc3s2)CC1 | 124 | 18.1
15 | COc1cc(OC)c([N+](=O)[O-])cc1/C=N/NC(=O)c1ccncc1 | 19 | 242
16 | CCCCCc1ccc(OCCCC[n+]2ccccc2)c(CCCCC)c1.[Cl-] | 79.3 | 16
17 | COc1cc(/C=N/NC(=O)c2ccncc2)ccc1OCc1cnc(Cl)s1 | 3.56 | 219
18 | CCc1ccc(NC(=S)Nc2ccc3c[nH]nc3c2)cc1 | 33.8 | 237
19 | O=C(/C=C/c1cccs1)NCc1ccccc1 | 10.6 | 217
20 | O=C(CCC1CCCC1)NCc1ccccn1 | < 0 | 240
21 | C/C(=N/NC(=O)c1ccncc1)c1ccc(NC(=O)c2ccccc2)cc1 | 28.2 | 240

Row | Compound | area under cytotoxicity dose-response curve [1] | area under intracellular growth-inhibition dose-response curve [2]
22 | Cl.N=C(NCCCCCCNC(=N)NC(=N)Nc1ccc(Cl)cc1)NC(=N)Nc1ccc(Cl)cc1 | 120 | 43
23 | Cc1ccc(Cc2c(C)c(C#N)c3nc4ccccc4n3c2O)cc1 | 75.7 | 240
24 | O=C(NCCc1ccc(Cl)cc1)c1ccc(CNc2c(N3CCOCC3)c(=O)c2=O)cc1 | < 0 | 162
25 | CC(NC(=O)c1ccccc1F)C12C[C@H]3C[C@@H](C1)C[C@@H](C2)C3 (stereo partly specified) | 18.2 | 234
26 | O=C(NC(=S)Nc1ccc(NC(=O)c2cccs2)cc1)c1ccco1 | < 0 | 268
27 | CCS(=O)(=O)N1CCN(C(=O)CCC2CCCC2)CC1 | 19.5 | 214
28 | CC(=O)c1cccc(NC(=O)NC2CCCCCCC2)c1 | 36.2 | 244
29 | CCCCCC(=O)NC(=S)Nc1ccc(NC(=O)c2ccco2)cc1 | 0.441 | 274
30 | COc1ccc(/C=N/Nc2cc(C)nc3ccc(OC)cc23)c(OC)c1 | 42.9 | 151
31 | CCCC12CN3CCN(CC(C3)/C1=N\NC(=O)c1ccncc1)C2 | 28.1 | 233
32 | O=C(Cn1nnc(-c2ccc(F)cc2)n1)Nc1cccc(S(=O)(=O)N2CCCC2)c1 | 11.8 | 73.7
33 | O=c1c2cc(Cl)ccc2oc2nc3n(c(=O)c12)CCCS3 | 33.5 | 216
34 | COc1cc(OC)c(/C=N/NC(=O)c2ccncc2)c(OC)c1 | 60.6 | 272
35 | O=[N+]([O-])c1ccc(CN2CCN(c3ccccc3)CC2)o1 | 42.8 | 254
36 | COc1cccc(OCCNC(=O)c2cc([N+](=O)[O-])cc([N+](=O)[O-])c2)c1 | 10.6 | 265
37 | Cc1ccccc1C(=O)N1CCN(c2ccc(NC(=S)NC(=O)c3ccco3)cc2)CC1 | 63.6 | 185
38 | O=C(Nc1cccc([N+](=O)[O-])c1)NC1CCCCCCC1 | 14 | 228
39 | C/C(Cn1nnc([N+](=O)[O-])n1)=N\NC(=O)c1ccncc1 | < 0 | 271
40 | CCN(CC)C(=O)CSc1nnc2nnc3cc(Cl)ccc3n12 | 55.1 | 219
41 | O=C(NCCC1=CCCCC1)NC12CC3CC(CC(C3)C1)C2 | 60.3 | 196
42 | CC(C)c1ccc(NC(=O)NC2CCCCC2)cc1 | 66.5 | 185

Row | Compound | area under cytotoxicity dose-response curve [1] | area under intracellular growth-inhibition dose-response curve [2]
43 | CN(Cc1ccccc1)c1ccc2nnc(-c3ccccc3)n2n1 | < 0 | 169
44 | O=C(NCc1ccco1)c1cc([N+](=O)[O-])cc([N+](=O)[O-])c1 | 29.1 | 160
45 | COc1cc(OC)c2c(OC)cccc2n1 | 101 | 92.3
46 | C=CCN1/C(=C/c2ccc3cc(C)ccc3[n+]2CC)C=Cc2ccccc21.[Br-] | 86.8 | 102
47 | O=C(CSc1nc2ccccc2s1)NCc1cc([N+](=O)[O-])ccc1O | 48 | 39.4
48 | CCOc1ccc2oc(C(=O)OCC(=O)NC3CCCCC3)c(C)c2c1 | < 0 | 119
49 | O=C(Nc1cccc(Cl)c1)NC1CC2CCC1C2 (stereo unspecified) | 31.1 | 232
50 | Cn1ncc2cc(NC(N)=S)ccc21 | < 0 | 196
51 | O=C(Nc1ccc(C(=O)Oc2ccccc2)c(O)c1)c1ccco1 | 4.02 | 223
52 | Cc1ccc(C2=NCCn3c2c2ccc(C(F)(F)F)cc2[n+]3[O-])cc1 | < 0 | 161
53 | CCC(C)c1ccc(NC(=S)Nc2ccc(OC)cc2)cc1 (stereo unspecified) | 46.7 | 201
54 | O=C(c1ccc(Cl)s1)N1CCN(c2ncccn2)CC1 | 31.4 | 86.8
55 | CNC(=S)Nc1ccc(-c2nc3ccc(C)cc3s2)cc1 | 5.79 | 262
56 | COc1ccc(/C=C(\NC(=O)c2ccc(C)cc2)C(=O)Nc2c(C)n(C)n(-c3ccccc3)c2=O)cc1 | 42 | 50.7
57 | NC1=NC(=O)/C(=C/c2ccc(Cl)cc2Cl)S1 | < 0 | 129
58 | Cn1c(COc2ccc(Cl)cc2)nnc1SCC(=O)NC1CC1 | 96 | 24.4
59 | O=C(CCCOc1ccccc1)NNC(=O)c1ccncc1 | < 0 | 263
60 | O=P1(c2ccccc2)Nc2ccccc2N1c1ccccc1 (stereo unspecified) | 8.15 | 264
61 | CC(=O)c1c(C)[n+]([O-])c2ccccc2[n+]1[O-] | 17.5 | 84.7
62 | COc1ccc(C(=O)Oc2cc(/C=N/NC(N)=S)ccc2OC)cc1 | 53.3 | 211
63 | Cc1ccc(C2(C)NC(=O)N(CC(=O)N3c4ccccc4NC(=O)CC3C)C2=O)cc1 (stereo unspecified) | 3.65 | 36.2
